Results as given in PMC10331583, “Control of fibrosis with enhanced safety via asymmetric inhibition of prolyl‐tRNA synthetase 1” (EMBO Molecular Medicine, 2023).
Several values for one entry are separate records, joined by “and”; a condition that tells them apart may be missing. Equal values may be shown once. Read-outs that look alike come from different tables or passages of the source.

Tests used:
WI‐26 VA4 cells [1] = test: CellTiter‐Glo assay (cytotoxicity); conditions: for activity at 0.0001 µM / activity at 0.0003 µM / activity at 0.001 µM / activity at 0.003 µM / activity at 0.01 µM / activity at 0.03 µM / activity at 0.1 µM / activity at 0.3 µM / activity at 1 µM / activity at 3 µM / activity at 10 µM / activity at 30 µM / activity at 100 µM: Homo sapiens
[2] = CellTiter‐Glo assay (cytotoxicity); conditions: human, WI-26 VA4 cells
WI‐26 VA4 cells [3] = test: Puromycin incorporation assay; format: cell-based, human; conditions: for activity at 0.01 µM: WI26VA4, 10 nM; for activity at 0.03 µM: WI26VA4, 30 nM; for activity at 3 µM: WI26VA4, 3000 nM
Experimental: After being rinsed with cold PBS twice, the cells were collected and resuspended in 200 μl of the carbonate bicarbonate buffer (Sigma Aldrich, C3041‐50CAP) with protease inhibitor. The cell lysates were obtained by sonication and centrifugation at 20,000 g for 15 min at 4°C. After protein quantification using a Pierce™ BCA Protein Assay Kit (Thermo Fisher Scientific, 23225), 400 ng of the proteins was coated to ELISA plates for 18 h at 4°C. […] The plates were rinsed with the washing buffer for three times after each antibody incubation step. […] The amount of puromycin incorporated in proteins was determined by measuring the absorbance at 450 nm (reference wavelength at 620 nm). Experimental values marked in red with strikethrough text in the Figure Source Data file were excluded from the analysis. These values were determined by considering the values of biological and technical replicates under the same condition, as well as the values at the former and later chemical concentrations.

[4] = Homo sapiens, read-out: Puromycin, % of control, average
[5] = Homo sapiens, read-out: Puromycin, % of control, single replicate

## O=C(C[C@H]1NCCC[C@@H]1O)Cn1cnc2ccc(-c3cccc(F)c3)cc21 [DWN11251]
WI‐26 VA4 cells [1]; WI26VA4, read-out: CellTiter-Glo % of control, 0.1 nM, Experiment #1, replicates
  activity at 0.0001 µM: 92.7%
WI‐26 VA4 cells [1]; WI26VA4, read-out: CellTiter-Glo % of control, 0.1 nM, Experiment #2, replicates
  activity at 0.0001 µM: 120%
WI‐26 VA4 cells [1]; WI26VA4, read-out: CellTiter-Glo % of control, 0.3 nM, Experiment #1, replicates
  activity at 0.0003 µM: 111%
WI‐26 VA4 cells [1]; WI26VA4, read-out: CellTiter-Glo % of control, 0.3 nM, Experiment #2, replicates
  activity at 0.0003 µM: 121%
WI‐26 VA4 cells [1]; WI26VA4, read-out: CellTiter-Glo % of control, 1 nM, Experiment #1, replicates
  activity at 0.001 µM: 105%
WI‐26 VA4 cells [1]; WI26VA4, read-out: CellTiter-Glo % of control, 1 nM, Experiment #2, replicates
  activity at 0.001 µM: 107%
WI‐26 VA4 cells [1]; WI26VA4, read-out: CellTiter-Glo % of control, 3 nM, Experiment #1, replicates
  activity at 0.003 µM: 122%
WI‐26 VA4 cells [1]; WI26VA4, read-out: CellTiter-Glo % of control, 3 nM, Experiment #2, replicates
  activity at 0.003 µM: 111%
WI‐26 VA4 cells [1]; WI26VA4, read-out: CellTiter-Glo % of control, 10 nM, Experiment #1, replicates
  activity at 0.01 µM: 100%
WI‐26 VA4 cells [1]; WI26VA4, read-out: CellTiter-Glo % of control, 10 nM, Experiment #2, replicates
  activity at 0.01 µM: 121%
WI‐26 VA4 cells [1]; WI26VA4, read-out: CellTiter-Glo % of control, 30 nM, Experiment #1, replicates
  activity at 0.03 µM: 108%
WI‐26 VA4 cells [1]; WI26VA4, read-out: CellTiter-Glo % of control, 30 nM, Experiment #2, replicates
  activity at 0.03 µM: 124%
WI‐26 VA4 cells [1]; WI26VA4, read-out: CellTiter-Glo % of control, 100 nM, Experiment #1, replicates
  activity at 0.1 µM: 112%
WI‐26 VA4 cells [1]; WI26VA4, read-out: CellTiter-Glo % of control, 100 nM, Experiment #2, replicates
  activity at 0.1 µM: 126%
WI‐26 VA4 cells [1]; WI26VA4, read-out: CellTiter-Glo % of control, 300 nM, Experiment #1, replicates
  activity at 0.3 µM: 98.2%
WI‐26 VA4 cells [1]; WI26VA4, read-out: CellTiter-Glo % of control, 300 nM, Experiment #2, replicates
  activity at 0.3 µM: 105%
WI‐26 VA4 cells [1]; WI26VA4, read-out: CellTiter-Glo % of control, 1000 nM, Experiment #1, replicates
  activity at 1 µM: 73.2%
WI‐26 VA4 cells [1]; WI26VA4, read-out: CellTiter-Glo % of control, 1000 nM, Experiment #2, replicates
  activity at 1 µM: 76.4%
WI‐26 VA4 cells [1]; WI26VA4, read-out: CellTiter-Glo % of control, 3000 nM, Experiment #1, replicates
  activity at 3 µM: 36.1%
WI‐26 VA4 cells [1]; WI26VA4, read-out: CellTiter-Glo % of control, 3000 nM, Experiment #2, replicates
  activity at 3 µM: 46.1%
WI‐26 VA4 cells [1]; WI26VA4, read-out: CellTiter-Glo % of control, 10000 nM, Experiment #1, replicates
  activity at 10 µM: 26.6%
WI‐26 VA4 cells [1]; WI26VA4, read-out: CellTiter-Glo % of control, 10000 nM, Experiment #2, replicates
  activity at 10 µM: 30%
WI‐26 VA4 cells [1]; WI26VA4, read-out: CellTiter-Glo % of control, 30000 nM, Experiment #1, replicates
  activity at 30 µM: 12.4%
WI‐26 VA4 cells [1]; WI26VA4, read-out: CellTiter-Glo % of control, 30000 nM, Experiment #2, replicates
  activity at 30 µM: 11.9%
WI‐26 VA4 cells [1]; WI26VA4, read-out: CellTiter-Glo % of control, 100000 nM, Experiment #1, replicates
  activity at 100 µM: 1.59%
WI‐26 VA4 cells [1]; WI26VA4, read-out: CellTiter-Glo % of control, 100000 nM, Experiment #2, replicates
  activity at 100 µM: 0.95%
WI‐26 VA4 cells [1]; WI26VA4, read-out: CellTiter-Glo % of control, average, 0.1 nM, average
  activity at 0.0001 µM: 110%
WI‐26 VA4 cells [1]; WI26VA4, read-out: CellTiter-Glo % of control, average, 0.3 nM, average
  activity at 0.0003 µM: 116%
WI‐26 VA4 cells [1]; WI26VA4, read-out: CellTiter-Glo % of control, average, 1 nM, average
  activity at 0.001 µM: 108%
WI‐26 VA4 cells [1]; WI26VA4, read-out: CellTiter-Glo % of control, average, 3 nM, average
  activity at 0.003 µM: 112%
WI‐26 VA4 cells [1]; WI26VA4, read-out: CellTiter-Glo % of control, average, 10 nM, average
  activity at 0.01 µM: 113%
WI‐26 VA4 cells [1]; WI26VA4, read-out: CellTiter-Glo % of control, average, 30 nM, average
  activity at 0.03 µM: 119%
WI‐26 VA4 cells [1]; WI26VA4, read-out: CellTiter-Glo % of control, average, 100 nM, average
  activity at 0.1 µM: 119%
WI‐26 VA4 cells [1]; WI26VA4, read-out: CellTiter-Glo % of control, average, 300 nM, average
  activity at 0.3 µM: 101%
WI‐26 VA4 cells [1]; WI26VA4, read-out: CellTiter-Glo % of control, average, 1000 nM, average
  activity at 1 µM: 76.7%
WI‐26 VA4 cells [1]; WI26VA4, read-out: CellTiter-Glo % of control, average, 3000 nM, average
  activity at 3 µM: 41.3%
WI‐26 VA4 cells [1]; WI26VA4, read-out: CellTiter-Glo % of control, average, 10000 nM, average
  activity at 10 µM: 29%
WI‐26 VA4 cells [1]; WI26VA4, read-out: CellTiter-Glo % of control, average, 30000 nM, average
  activity at 30 µM: 14.4%
WI‐26 VA4 cells [1]; WI26VA4, read-out: CellTiter-Glo % of control, average, 100000 nM, average
  activity at 100 µM: 1.22%
WI‐26 VA4 cells [1]; log(inhibitor) vs. response, variable slope (four parameters), concentration in nM
  CellTiter-Glo LogIC50 (best-fit value): 3.259
[2]
  CC50 at 72 h: 1820 nM
WI‐26 VA4 cells [3]; 10 nM, 0.01 µM
  Puromycin, % of control, single replicate: 101.25 % of control and 94.41 % of control and 100.93 % of control and 102.37 % of control and 93.16 % of control and 112.99 % of control and 111.09 % of control and 112.68 % of control
WI‐26 VA4 cells [3]; 30 nM, 0.03 µM
  Puromycin, % of control, single replicate: 103.89 % of control and 102.07 % of control and 109.54 % of control and 108.35 % of control and 99.59 % of control and 116.49 % of control and 113.07 % of control and 114.50 % of control
WI‐26 VA4 cells [3]; 100 nM, 0.1 µM
  Puromycin, % of control, single replicate: 103.01 % of control and 100.87 % of control and 101.28 % of control and 109.49 % of control and 107.49 % of control and 101.40 % of control and 114.53 % of control and 111.00 % of control and 121.31 % of control
WI‐26 VA4 cells [3]; 300 nM, 0.3 µM
  Puromycin, % of control, single replicate: 88.40 % of control and 85.23 % of control and 87.58 % of control and 94.28 % of control and 93.99 % of control and 87.62 % of control and 94.72 % of control and 94.55 % of control and 109.57 % of control
WI‐26 VA4 cells [3]; 1000 nM, 1 µM
  Puromycin, % of control, single replicate: 106.50 % of control and 101.49 % of control and 107.47 % of control and 104.76 % of control and 102.45 % of control and 95.18 % of control and 122.63 % of control and 109.16 % of control and 107.56 % of control
WI‐26 VA4 cells [3]; 3000 nM, 3 µM
  Puromycin, % of control, single replicate: 61.69 % of control and 62.47 % of control and 62.84 % of control and 57.24 % of control
WI‐26 VA4 cells [3]; 10000 nM, 10 µM
  Puromycin, % of control, single replicate: 19.53 % of control and 20.29 % of control and 21.78 % of control and 23.63 % of control and 20.64 % of control and 21.23 % of control and 21.73 % of control and 22.58 % of control
WI‐26 VA4 cells [3]; 30000 nM, 30 µM
  Puromycin, % of control, single replicate: 0.45 % of control and 0.66 % of control and 0.0147 % of control and 1.69 % of control and 1.62 % of control and 0.33 % of control and 0.81 % of control and 1.20 % of control and -0.12 % of control
WI‐26 VA4 cells [3]; [4]
  activity at 0.01 µM: 103%
  activity at 0.03 µM: 108%
  activity at 3 µM: 60.8%
WI‐26 VA4 cells [3]; [5]
  activity at 0.01 µM: 99.1%
  activity at 0.03 µM: 108%
  activity at 3 µM: 59.6%
WI‐26 VA4 cells [3]; Homo sapiens, WI26VA4, 100 nM, read-out: Puromycin, % of control, average
  activity at 0.1 µM: 108%
WI‐26 VA4 cells [3]; Homo sapiens, WI26VA4, 300 nM, read-out: Puromycin, % of control, average
  activity at 0.3 µM: 92.9%
WI‐26 VA4 cells [3]; Homo sapiens, WI26VA4, 1000 nM, read-out: Puromycin, % of control, average
  activity at 1 µM: 106%
WI‐26 VA4 cells [3]; Homo sapiens, WI26VA4, 10000 nM, read-out: Puromycin, % of control, average
  activity at 10 µM: 21.3%
